# Results as given in ChEMBL document CHEMBL5303573, “Mapping human microbiome drug metabolism by gut bacteria and their genes” (Nature, 2019).
# Columns and labels:
# [1] = The drug is tested on Bacteroides uniformis strain: ATCC8492 for biotransformation. The drug concentrations were measured before and after a 12-h incubation by liquid-chromatography-coupled mass spectrometry (LC–MS); conditions: 2 µM
# [2] = The drug is tested on Edwardsiella tarda strain: ATCC23685 for biotransformation. The drug concentrations were measured before and after a 12-h incubation by liquid-chromatography-coupled mass spectrometry (LC–MS); conditions: 2 µM
# [3] = The drug is tested on Alistipes indistinctus strain: DSM22520 for biotransformation. The drug concentrations were measured before and after a 12-h incubation by liquid-chromatography-coupled mass spectrometry (LC–MS); conditions: 2 µM
# [4] = The drug is tested on Bacteroides vulgatus strain: ATCC8482 for biotransformation. The drug concentrations were measured before and after a 12-h incubation by liquid-chromatography-coupled mass spectrometry (LC–MS); conditions: phocaeicola vulgatus, 2 µM
# [5] = The drug is tested on Blautia luti strain: DSM14534 for biotransformation. The drug concentrations were measured before and after a 12-h incubation by liquid-chromatography-coupled mass spectrometry (LC–MS); type: ADME; parameters: dose 2 uM, timepoint 0 vs 12 hours; conditions: 2 µM
# [6] = The drug is tested on Clostridium sporogenes strain: ATCC15579 for biotransformation. The drug concentrations were measured before and after a 12-h incubation by liquid-chromatography-coupled mass spectrometry (LC–MS); conditions: 2 µM
# [7] = The drug is tested on Clostridium symbiosum strain: ATCC14940 for biotransformation. The drug concentrations were measured before and after a 12-h incubation by liquid-chromatography-coupled mass spectrometry (LC–MS); conditions: 2 µM
# [8] = The drug is tested on Bacteroides pectinophilus strain: ATCC43243 for biotransformation. The drug concentrations were measured before and after a 12-h incubation by liquid-chromatography-coupled mass spectrometry (LC–MS); conditions: 2 µM
# [9] = The drug is tested on Eggerthella lenta strain: ATCC25559 for biotransformation. The drug concentrations were measured before and after a 12-h incubation by liquid-chromatography-coupled mass spectrometry (LC–MS); conditions: 2 µM
# [10] = The drug is tested on Subdoligranulum variabile strain: DSM15176 for biotransformation. The drug concentrations were measured before and after a 12-h incubation by liquid-chromatography-coupled mass spectrometry (LC–MS); conditions: 2 µM
# [11] = anaerostipes sp., 12 h, 2 µM
# Description: The drug is tested on Anaerostipes sp. strain: fecal isolate for biotransformation. The drug concentrations were measured before and after a 12-h incubation by liquid-chromatography-coupled mass spectrometry (LC–MS)
# [12] = The drug is tested on Parabacteroides merdae strain: ATCC43184 for biotransformation. The drug concentrations were measured before and after a 12-h incubation by liquid-chromatography-coupled mass spectrometry (LC–MS); conditions: 2 µM
# [13] = The drug is tested on Bacteroides ovatus strain: ATCC8483 for biotransformation. The drug concentrations were measured before and after a 12-h incubation by liquid-chromatography-coupled mass spectrometry (LC–MS); conditions: 2 µM
# [14] = bacteroides thetaiotaomicron, 12 h, 2 µM
# Description: The drug is tested on Bacteroides thetaiotaomicron strain: 3731 for biotransformation. The drug concentrations were measured before and after a 12-h incubation by liquid-chromatography-coupled mass spectrometry (LC–MS)
# [15] = The drug is tested on Clostridium scindens strain: ATCC35704 for biotransformation. The drug concentrations were measured before and after a 12-h incubation by liquid-chromatography-coupled mass spectrometry (LC–MS); conditions: 2 µM
# [16] = The drug is tested on Bacteroides fragilis strain: HMW610 for biotransformation. The drug concentrations were measured before and after a 12-h incubation by liquid-chromatography-coupled mass spectrometry (LC–MS); conditions: 2 µM
# [17] = The drug is tested on Odoribacter splanchnicus strain: fecal isolate for biotransformation. The drug concentrations were measured before and after a 12-h incubation by liquid-chromatography-coupled mass spectrometry (LC–MS); conditions: 2 µM
# [18] = The drug is tested on Anaerococcus hydrogenalis strain: DSM7454 for biotransformation. The drug concentrations were measured before and after a 12-h incubation by liquid-chromatography-coupled mass spectrometry (LC–MS); conditions: 2 µM
# [19] = The drug is tested on Coprococcus comes strain: ATCC27758 for biotransformation. The drug concentrations were measured before and after a 12-h incubation by liquid-chromatography-coupled mass spectrometry (LC–MS); type: ADME; parameters: dose 2 uM, timepoint 0 vs 12 hours; conditions: 2 µM
# [20] = bacteroides fragilis, 12 h, 2 µM
# Description: The drug is tested on Bacteroides fragilis strain: NCTC 9343 for biotransformation. The drug concentrations were measured before and after a 12-h incubation by liquid-chromatography-coupled mass spectrometry (LC–MS)
Bacterial Biotransformation [1],Bacterial Biotransformation [2],Bacterial Biotransformation [3],Bacterial Biotransformation [4],Bacterial Biotransformation [5],Bacterial Biotransformation [6],Bacterial Biotransformation [7],Bacterial Biotransformation [8],Bacterial Biotransformation [9],Bacterial Biotransformation [10],Bacterial Biotransformation [11],Bacterial Biotransformation [12],Bacterial Biotransformation [13],Bacterial Biotransformation [14],Bacterial Biotransformation [15],Bacterial Biotransformation [16],Bacterial Biotransformation [17],Bacterial Biotransformation [18],Bacterial Biotransformation [19],Bacterial Biotransformation [20],Compound
Compound NOT metabolized,Compound NOT metabolized,Compound NOT metabolized,Compound NOT metabolized,Compound NOT metabolized,Compound NOT metabolized,Compound NOT metabolized,Compound NOT metabolized,Compound NOT metabolized,Compound NOT metabolized,Compound NOT metabolized,Compound NOT metabolized,Compound NOT metabolized,Compound NOT metabolized,Compound NOT metabolized,Compound NOT metabolized,Compound NOT metabolized,Compound NOT metabolized,Compound NOT metabolized,Compound NOT metabolized,CN1CCc2cccc3c2[C@H]1Cc1ccc(O)c(O)c1-3 [APOMORPHINE]
Compound NOT metabolized,Compound NOT metabolized,Compound NOT metabolized,Compound NOT metabolized,Compound NOT metabolized,Compound NOT metabolized,Compound NOT metabolized,Compound NOT metabolized,Compound NOT metabolized,Compound NOT metabolized,Compound NOT metabolized,Compound NOT metabolized,Compound NOT metabolized,Compound NOT metabolized,Compound NOT metabolized,Compound NOT metabolized,Compound NOT metabolized,Compound NOT metabolized,Compound NOT metabolized,Compound NOT metabolized,CCc1oc2ccccc2c1C(=O)c1cc(Br)c(O)c(Br)c1 [BENZBROMARONE]
Compound metabolized,,Compound metabolized,Compound metabolized,Compound metabolized,Compound metabolized,Compound metabolized,Compound NOT metabolized,Compound metabolized,Compound metabolized,Compound metabolized,Compound metabolized,Compound metabolized,Compound metabolized,Compound metabolized,Compound metabolized,Compound metabolized,Compound metabolized,Compound metabolized,Compound metabolized,Nc1ccc(/N=N/c2ccccc2)c(N)n1 [PHENAZOPYRIDINE]
Compound metabolized,,Compound metabolized,Compound metabolized,Compound metabolized,Compound metabolized,Compound metabolized,Compound NOT metabolized,Compound metabolized,Compound metabolized,Compound metabolized,Compound metabolized,Compound metabolized,Compound metabolized,Compound metabolized,Compound metabolized,Compound metabolized,Compound metabolized,Compound metabolized,Compound metabolized,O=C(O)c1cc(/N=N/c2ccc(S(=O)(=O)Nc3ccccn3)cc2)ccc1O [SULFASALAZINE]
Compound metabolized,Compound metabolized,Compound metabolized,Compound metabolized,Compound metabolized,Compound metabolized,,Compound metabolized,Compound metabolized,Compound metabolized,,Compound metabolized,Compound metabolized,Compound metabolized,Compound metabolized,Compound metabolized,Compound metabolized,Compound metabolized,Compound metabolized,Compound metabolized,COc1ccc2[nH]c([S+]([O-])Cc3ncc(C)c(OC)c3C)nc2n1 (stereo not given) [TENATOPRAZOLE]
Compound metabolized,,Compound metabolized,Compound metabolized,Compound metabolized,Compound metabolized,Compound metabolized,Compound NOT metabolized,Compound metabolized,Compound metabolized,Compound metabolized,Compound metabolized,Compound metabolized,Compound metabolized,Compound metabolized,Compound metabolized,Compound metabolized,Compound metabolized,Compound metabolized,Compound metabolized,CCS(=O)(=O)CCn1c([N+](=O)[O-])cnc1C [TINIDAZOLE]

Compound,Bacterial Biotransformation [1],Bacterial Biotransformation [2],Bacterial Biotransformation [3],Bacterial Biotransformation [4],Bacterial Biotransformation [5],Bacterial Biotransformation [6],Bacterial Biotransformation [7],Bacterial Biotransformation [8],Bacterial Biotransformation [9],Bacterial Biotransformation [10],Bacterial Biotransformation [11],Bacterial Biotransformation [12],Bacterial Biotransformation [13],Bacterial Biotransformation [14],Bacterial Biotransformation [15],Bacterial Biotransformation [16],Bacterial Biotransformation [17],Bacterial Biotransformation [18],Bacterial Biotransformation [19],Bacterial Biotransformation [20]
N[C@@H](Cc1ccc(N(CCCl)CCCl)cc1)C(=O)O,Compound metabolized,Compound metabolized,Compound metabolized,Compound metabolized,Compound metabolized,Compound metabolized,Compound metabolized,Compound metabolized,Compound metabolized,Compound metabolized,Compound metabolized,Compound metabolized,Compound metabolized,Compound metabolized,Compound metabolized,Compound metabolized,Compound metabolized,Compound metabolized,Compound metabolized,Compound metabolized
C[C@@H]1CC[C@H]2[C@@H](C)C(=O)O[C@@H]3O[C@@]4(C)CC[C@@H]1[C@]32OO4 [ARTEMISININ],Compound metabolized,Compound metabolized,Compound metabolized,Compound metabolized,Compound metabolized,Compound metabolized,Compound metabolized,Compound metabolized,Compound metabolized,Compound metabolized,Compound metabolized,Compound metabolized,Compound metabolized,Compound metabolized,Compound metabolized,Compound metabolized,Compound metabolized,Compound metabolized,Compound metabolized,Compound metabolized
